Here are results for 30 compounds from ChEMBL document CHEMBL1139863, “Synthesis and in vitro antiprotozoal activities of dicationic 3,5-diphenylisoxazoles” (J Med Chem, 2007).

For assay [1], the system named is Trypanosoma brucei rhodesiense. As to the kind of experiment: Antitrypanosomal activity against Trypanosoma brucei rhodesiense. Format: functional, organism-based.
Another assay has as its system Plasmodium falciparum. As to the kind of experiment: Antiplasmodial activity against chloroquine-resistant Plasmodium falciparum K1. In kind it is functional, organism-based.
For the next assay, the system named is L6. Nature of the assay: Cytotoxicity against rat L6 cells. In kind it is cell-based.

For the compound `N=C(N)c1ccc(-c2cc(-c3ccc(C(=N)N)cc3Cl)on2)cc1`, the IC50 in assay [1] was 15.5 nM; with Plasmodium falciparum, 7.9 nM; in the assay with L6, 41 µM.

On to `N=C(N)c1cccc(-c2cc(-c3ccc(C(=N)N)cc3[N+](=O)[O-])on2)c1`, for which the IC50 in assay [1] was determined as 9 nM; in the assay with Plasmodium falciparum it was 25.9 nM; in the assay with L6, 48 µM.

Consider `CC(C)NC(=N)c1ccc(-c2cc(-c3cccc(C(=N)NC(C)C)c3)no2)cc1`, for which the concentration for half-maximal inhibition (IC50) was 488 nM in assay [1], 10.6 nM with Plasmodium falciparum and above 187 µM with L6.

Regarding `N=C(N)c1ccc(-c2cc(-c3ccccc3)on2)cc1`, the IC50 in assay [1] was 1120 nM; in the assay on Plasmodium falciparum, above 3300 nM; in the assay with L6 it was 18.5 µM.

With `CC(C)NC(=N)c1cccc(-c2cc(-c3cccc(C(=N)NC(C)C)c3)on2)c1`, the IC50 is 4980 nM in assay [1], 43.1 nM with Plasmodium falciparum and above 180 µM with L6.

For the compound `COc1cc(C(=N)N)ccc1-c1cc(-c2cccc(C(=N)N)c2)on1`, the results for the IC50 (in assay [1]; in the assay with Plasmodium falciparum; in the assay on L6) were 5.9 nM, 8.9 nM and 136 µM, respectively.

As for `N=C(N)c1cccc(-c2cc(-c3ccc(C(=N)N)cc3Cl)on2)c1`, the half-maximal inhibitory concentration (IC50) came out at 6.3 nM in assay [1], 18.7 nM in the assay with Plasmodium falciparum and 82.7 µM with L6.

For `N=C(N)c1ccc(-c2cc(-c3ccc(C(=N)N)cc3)on2)cc1`, the IC50 in assay [1] was 5.1 nM; with Plasmodium falciparum it was 22.6 nM; in the assay on L6, 2.1 µM.

Turning to `COc1cc(C(=N)N)ccc1-c1cc(-c2cccc(C(=N)N)c2)no1`, the IC50 in assay [1] came to 6.5 nM; with Plasmodium falciparum it was 3.5 nM; with L6, 177 µM.

With `CC(C)NC(=N)c1ccc(-c2cc(-c3ccc(C(=N)NC(C)C)cc3)on2)cc1`, the IC50 in assay [1] is 196 nM; in the assay on Plasmodium falciparum, 6.6 nM; in the assay with L6 it was above 176 µM.

`N=C(N)c1ccc(-c2cc(-c3cccc(C(=N)N)c3)on2)cc1`: the figures for the IC50 (in assay [1]; in the assay with Plasmodium falciparum; in the assay on L6) were 3.5 nM, 2.5 nM and 31.2 µM, respectively.

Take `CC(C)NC(=N)c1ccc(-c2cc(-c3cccc(C(=N)NC(C)C)c3)on2)cc1`: the IC50 in assay [1] is 316 nM; with Plasmodium falciparum it was 34.7 nM; in the assay with L6, above 186 µM.

For the compound `N=C(N)c1ccc(-c2cc(-c3ccc(C(=N)N)cc3Cl)no2)cc1`, the IC50 was found to be 23.2 nM in assay [1], 55.5 nM in the assay with Plasmodium falciparum and 5.7 µM in the assay with L6.

As for `N=C(N)c1ccc(-c2cc(-c3ccc(C(=N)N)cc3[N+](=O)[O-])on2)cc1`, the figures for the 50% inhibitory concentration (IC50) (in assay [1]; with Plasmodium falciparum; in the assay with L6) were 13.9 nM, 14.9 nM and 15.8 µM, respectively.

On to `Nc1nc(N)nc(Nc2ccc([As]3SCC(CO)S3)cc2)n1` (centres undefined) [MELARSOPROL], for which, in assay [1], inhibition was half-maximal at 6.4 nM (IC50). That is a single-digit nanomolar value.

Take `COc1cc(C(=N)N)ccc1-c1cc(-c2ccc(C(=N)N)cc2)no1`: the IC50 in assay [1] was found to be 10.6 nM; with Plasmodium falciparum, 6 nM; in the assay with L6, 122 µM.

Consider `c1cc(-c2cc(-c3ccc(C4=NCCN4)cc3)on2)ccc1C1=NCCN1`, for which the IC50 came out at 87.2 nM in assay [1], 4.1 nM in the assay with Plasmodium falciparum and 1.8 µM with L6.

As to `N=C(N)c1ccc(-c2cc(-c3cccc(C(=N)N)c3)no2)cc1`, the IC50 in assay [1] is 6.3 nM; with Plasmodium falciparum, 57.8 nM; with L6, 24.1 µM.

In the case of `N=C(N)c1cccc(-c2cc(-c3ccc(C(=N)N)cc3[N+](=O)[O-])no2)c1`, the IC50 in assay [1] was 19.4 nM; with Plasmodium falciparum, 30.4 nM; in the assay with L6 it was above 206 µM.

Take `N=C(N)c1cccc(-c2cc(-c3cccc(C(=N)N)c3)on2)c1`: the IC50 in assay [1] amounted to 29 nM; in the assay with Plasmodium falciparum it was 9.2 nM; with L6 it was 153 µM.

In the case of `C[C@@H]1CC[C@H]2[C@@H](C)C(=O)O[C@@H]3O[C@@]4(C)CC[C@@H]1[C@]32OO4` [ARTEMISININ], the IC50 with Plasmodium falciparum was found to be 6.7 nM.

For the compound `N=C(N)c1ccc(-c2cc(-c3ccc(C(=N)N)cc3[N+](=O)[O-])no2)cc1`, the IC50 amounted to 32.4 nM in assay [1], 14.9 nM with Plasmodium falciparum and 22.2 µM in the assay on L6.

As to `c1cc(C2=NCCN2)cc(-c2cc(-c3ccc(C4=NCCN4)cc3)no2)c1`, the IC50 in assay [1] is 974 nM; with Plasmodium falciparum, 77 nM; with L6, 30.2 µM.

As for `N=C(N)c1ccc(-c2cc(-c3ccccc3)no2)cc1`, the IC50 in assay [1] is 1720 nM; in the assay on Plasmodium falciparum, above 3300 nM; in the assay with L6 it was 19.1 µM.

For `COc1cc(C(=N)N)ccc1-c1cc(-c2ccc(C(=N)N)cc2)on1`, the figures for the IC50 (in assay [1]; in the assay with Plasmodium falciparum; in the assay on L6) were 16.4 nM, 66.3 nM and 92.6 µM, respectively.

Take `N=C(N)c1ccc(-c2ccc(-c3ccc(C(=N)N)cc3)o2)cc1` [FURAMIDINE]: the IC50 in the assay on L6 worked out at 16.4 µM.

On to `c1cc(C2=NCCN2)cc(-c2cc(-c3ccc(C4=NCCN4)cc3)on2)c1`, for which the half-maximal inhibitory concentration (IC50) worked out at 1550 nM in assay [1], 51.2 nM with Plasmodium falciparum and 65 µM with L6.

Turning to `COc1cc(C(=N)N)ccc1-c1cc(-c2ccc(C(=N)N)cc2OC)on1`, the IC50 was determined as 13 nM in assay [1], 6.1 nM in the assay with Plasmodium falciparum and 84.8 µM in the assay with L6.

`N=C(N)c1cccc(-c2cc(-c3ccc(C(=N)N)cc3Cl)no2)c1`: the concentration for half-maximal inhibition (IC50) came out at 11.6 nM in assay [1], 14.1 nM in the assay on Plasmodium falciparum and 87.4 µM in the assay with L6.

For `c1cc(C2=NCCN2)cc(-c2cc(-c3cccc(C4=NCCN4)c3)on2)c1`, the IC50 in assay [1] was found to be 18500 nM; in the assay on Plasmodium falciparum it was 227 nM; in the assay on L6, 26.2 µM.
